Legend:
PDGFRα = biological target: T1, PDGFRα (Homo sapiens, UniProt P16234); experiment: Kinase Selectivity Profiling System TK-1 / ADP-Glo, PDGFRα; assay type: biochemical
T1 construct: purchased Promega
Description: Considering the presence of a purine ring in the compounds under study, type 1 binding to protein kinases could be expected. We investigated the kinase selectivity of targeted compounds 7–16 against eight receptor tyrosine kinases including EGFR, HER2 and HER4 (epidermal growth factor receptors), IGF1R (insulin-like growth factor 1 receptor), InsR (insulin receptor), KDR (vascular endothelial growth factor receptor 2—VEGFR-2), and PDGFRα and PDGFRβ (platelet-derived growth factor receptors). The assay was performed using the Kinase Selectivity Profiling System TK-1 (Promega, Madison, WI, USA) and ADP-Glo™ Kinase assay kit (Promega, Madison, WI, USA). Kinase activity was measured by quantifying the […] following a kinase reaction. Enzymatic activity inhibition percentage caused by studied compounds was evaluated at the single concentration of 1 μM.
The Abl1 inhibitory activity assay was performed using Abl1 Kinase Enzyme System (Promega, Madison, WI, USA) and ADP-Glo™ Kinase assay kit (Promega, Madison, WI, USA) according to the Technical Manual. The general procedure was as follows: kinase (2.5 ng/reaction) was incubated with substrate (1 μg), compound (0.5 and 10µM) and ATP (50 μM) in a commercial buffer solution with a reaction volume of 5 μL. In every experiment, no-enzyme and no-compound control reactions were included to represent background luminescence (0% activity) and uninhibited kinase activity (100% activity), respectively. The assay 384-well plate was incubated at room temperature for 1 h. Afterwards, 5μL of ADP-Glo reagent was added into each well to stop the reaction and consume the […] within 40 min. At the end, 10 μL of kinase detection reagent was added into the well and incubated for 30 min to produce a luminescence signal. Kinase activity assays were performed in triplicate at each inhibitor concentration. The luminescence was measured with the help of a Tecan Infinite M200 Plate Reader. The luminescence data were analyzed using the computer software, Magellan™. Percent kinase activity (KA) was calculated by subtracting the average no-enzyme control luminescence values from all kinase-containing reactions with or without compound, then converting these net luminescence values to percent activity based on the no-compound control reactions representing 100% kinase activity. Inhibition (I, %) was calculated as 100%-KA.
The single-dose screening of kinase selectivity was performed using Kinase Selectivity Profiling System TK-1 (Promega, Madison, WI, USA) and ADP-Glo™ Kinase assay kit (Promega, Madison, WI, USA) according to Technical Manual. Kinase Selectivity Profiling System TK-1 includes a set of kinases from the tyrosine kinase family (EGFR, HER2, HER4, IGF1R, InsR, KDR, PDGFα, PDGFβ) in 8-tube strip format. The general procedure was as follow: kinase working stock (2 µL/reaction) was incubated with ATP/substrate working stock (1 µL) and compound (1 µM) in a commercial buffer solution with a reaction volume of 5 μL. The reaction conditions and inhibition (%) calculation were the same as in Section 3.3.1. Kinase activity assays were performed in duplicate at each inhibitor.

[1] = test system: K562 (chronic myelogenous leukemia); experiment: MTT anti-proliferative assay, K562; assay type: cell-based; settings: Homo sapiens, 48 h
Procedure: (§1) For the in vitro assays, a stock solution (1% DMSO in the appropriate buffer with the tested compound diluted under sonication) was prepared from which several dilutions were made with the appropriate buffer.
Human cell lines were obtained from the Institute of Cytology, Russian Academy of Sciences. […] Plates were incubated under standard conditions for 48 h.

[2] = test system: RPMI 1788 (B lymphocyte, normal human lymphoblastoid cells); experiment: MTT assay on normal cells RPMI 1788; assay type: cell-based
Procedure: To determine the selectivity of the synthesized compounds 7–16 toward various cancer cells and normal human cells, the anti-proliferative activity against K562 (chronic myelogenous leukemia), HL-60 (promyelocytic leukemia), MCF-7 (breast adenocarcinoma), HeLa (cervix carcinoma), HepG2 (human liver cancer), A549 (lung carcinoma), OKP-GS (renal cell carcinoma), and normal cells RPMI 1788 (B lymphocyte, the human cell line) was investigated.
as §1, with “Each in vitro experiment was performed at least in triplicate and the standard deviation of absorbance was less than 10% of the mean. For” for “For”
Human cell lines were obtained from the Institute of Cytology, Russian Academy of Sciences. The cell lines studied were maintained in RPMI 1640 medium (AppliChem, Darmstadt, Germany) supplemented with 20% (HL-60, RPMI 1788) fetal calf serum (HyClone, Cramlington, UK), in DMEM (A 549) and Eagle’s MEM (AppliChem) (MCF7, HeLa) with 10% fetal calf serum (HyClone). Cells were cultivated at 37 °C in a humidified atmosphere of 5% CO2. Cellular sensitivities to synthesized compounds and standards were measured with the MTT assay. Cells were plated in triplicate in 96-well plates (10^5 cells/well for suspended cell cultures and 5 × 10^3 cells/well for monolayer cultures); on the same day (suspended cell cultures) or on the following day (monolayer cultures), compounds were added at the appropriate dilutions. […] The reference drugs were imatinib, sorafenib and nilotinib. Plates were incubated under standard conditions for 48 h. Thereafter, 10 μL MTT (Sigma) in phosphate-buffered saline (5 mg/mL) was added. The plates were incubated for an additional 4 h and 150 μL dimethylsulphoxide (DMSO) was added to dissolve the formazan crystals. The optical density was read on a HALO MPR-95 Microplate Reader (Dynamica Scientific Ltd., Melbourne, Victoria, Australia) at 570 nm. The antiproliferative effects were taken as degrees of inhibition of tumor cells (%). The average of three parallel measurements was calculated for each concentration of test compound. The degree of cell growth suppression was plotted as a function of the logarithm of the concentration. The half maximal inhibitory concentration (IC50) was determined graphically for active compounds.

T1 sequence (P16234 24-1089): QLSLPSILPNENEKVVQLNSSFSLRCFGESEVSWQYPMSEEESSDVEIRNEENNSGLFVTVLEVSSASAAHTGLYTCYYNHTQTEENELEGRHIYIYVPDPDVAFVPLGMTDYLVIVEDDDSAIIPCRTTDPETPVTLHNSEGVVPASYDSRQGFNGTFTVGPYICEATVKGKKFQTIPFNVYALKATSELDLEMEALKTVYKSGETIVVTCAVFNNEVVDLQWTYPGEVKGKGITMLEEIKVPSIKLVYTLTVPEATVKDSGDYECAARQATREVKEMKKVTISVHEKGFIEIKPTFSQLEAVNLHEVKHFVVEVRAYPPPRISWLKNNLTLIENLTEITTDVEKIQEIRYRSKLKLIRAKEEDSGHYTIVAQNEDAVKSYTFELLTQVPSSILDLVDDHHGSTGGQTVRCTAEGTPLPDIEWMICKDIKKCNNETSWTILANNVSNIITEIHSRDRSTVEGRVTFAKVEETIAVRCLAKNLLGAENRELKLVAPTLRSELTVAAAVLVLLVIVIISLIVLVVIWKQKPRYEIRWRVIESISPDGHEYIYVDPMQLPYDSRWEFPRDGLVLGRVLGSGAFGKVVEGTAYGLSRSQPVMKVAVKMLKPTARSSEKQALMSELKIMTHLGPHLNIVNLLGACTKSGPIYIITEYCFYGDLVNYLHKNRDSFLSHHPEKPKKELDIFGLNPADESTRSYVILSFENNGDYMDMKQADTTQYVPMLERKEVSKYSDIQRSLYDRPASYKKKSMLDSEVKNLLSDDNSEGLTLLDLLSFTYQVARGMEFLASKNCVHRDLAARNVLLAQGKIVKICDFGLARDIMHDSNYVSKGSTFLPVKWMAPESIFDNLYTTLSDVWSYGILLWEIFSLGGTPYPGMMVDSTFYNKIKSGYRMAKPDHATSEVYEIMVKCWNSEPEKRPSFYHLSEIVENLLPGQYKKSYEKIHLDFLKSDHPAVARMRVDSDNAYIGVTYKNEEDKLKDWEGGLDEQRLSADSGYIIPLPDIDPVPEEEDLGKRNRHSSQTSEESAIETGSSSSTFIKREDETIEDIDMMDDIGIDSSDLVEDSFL

inhibition at 1 µM (PDGFRα) | IC50 [1] | Compound | inhibition at 100 µM [2]
37% | 2.53 ± 0.77 µM | Cc1cn(-c2cc(NC(=O)c3ccc(Cn4cnc5c(Cl)nc(Cl)nc54)cc3)cc(C(F)(F)F)c2)cn1 [Compound 10, 4-((2,6-Dichloro-9H-purin-9-yl)methyl)-N-(3-(4-methyl-1H-imidazol-1-yl)-5-(trifluoromethyl)-phenyl)benzamide] | 98.5%
10% | 29.7 ± 1.87 µM | COc1nc(Cl)nc2c1ncn2Cc1ccc(C(=O)Nc2cccc(C(F)(F)F)c2)cc1 [Compound 13, 4-((2-Chloro-6-methoxy-9H-purin-9-yl)methyl)-N-(3-(trifluoromethyl)phenyl)benzamide] | 100%
16% | 30.6 ± 0.94 µM | Nc1nc(Cl)nc2c1ncn2Cc1ccc(C(=O)Nc2cccc(C(F)(F)F)c2)cc1 [Compound 15, 4-((6-Amino-2-chloro-9H-purin-9-yl)methyl)-N-(3-(trifluoromethyl)phenyl)benzamide] | 93.5%
40% | 2.27 ± 0.81 µM | O=C(Nc1cccc(C(F)(F)F)c1)c1ccc(Cn2cnc3c(Cl)nc(Cl)nc32)cc1 [Compound 7, 4-((2,6-Dichloro-9H-purin-9-yl)methyl)-N-(3-(trifluoromethyl)phenyl)benzamide] | 98.9%
16% | 27.5 ± 1.19 µM | COc1nc(Cl)nc2c1ncn2Cc1ccc(C(=O)Nc2cc(-n3cnc(C)c3)cc(C(F)(F)F)c2)cc1 [Compound 14, 4-((2-Chloro-6-methoxy-9H-purin-9-yl)methyl)-N-(3-(4-methyl-1H-imidazol-1-yl)-5-(trifluoromethyl)phenyl)benzamide] | 99.1%

Compound | inhibition at 1 µM (PDGFRα) | IC50 [1] | inhibition at 100 µM [2]
CNC(=O)c1cc(Oc2ccc(NC(=O)Nc3ccc(Cl)c(C(F)(F)F)c3)cc2)ccn1 [Sorafenib, sorafenib, reference compound] | 98% | 2.9 ± 0.4 µM | 100%

Reference: paper PMC8657793, “Synthesis, In Vitro and In Silico Anticancer Activity of New 4-Methylbenzamide Derivatives Containing 2,6-Substituted Purines as Potential Protein Kinases Inhibitors” (International Journal of Molecular Sciences, 2021)
